Results as given in ChEMBL document CHEMBL3526130, “An evaluation of using rat-derived single-dose neuropharmacokinetic parameters to project accurately large animal unbound brain drug concentrations” (Drug Metab Dispos, 2012).

Columns and labels:
[1] = Ratio of unbound drug level in brain to plasma in Sprague-Dawley rat at 1 mg/kg, sc by LC-MS/MS analysis; type: ADME, organism-based; set-up: dose 1 mg/kg, route subcutaneous
[2] = Ratio of unbound brain concentration to drug level in cerebrospinal fluid in Beagle dog at 0.5 mg/kg, po by LC-MS/MS analysis; type: ADME, organism-based, Canis lupus familiaris; set-up: dose 0.5 mg/kg, route oral; details: in vivo
[3] = tested on: Nucleic Acid; test: Ratio of drug level in cerebrospinal fluid to unbound plasma concentration in Beagle dog at 0.5 mg/kg, po by LC-MS/MS analysis; type: ADME, organism-based, Canis lupus familiaris; set-up: dose 0.5 mg/kg, route oral; details: in vivo
[4] = Ratio of unbound brain concentration to drug level in cerebrospinal fluid in Sprague-Dawley rat at 1 mg/kg, sc by LC-MS/MS analysis; type: ADME, organism-based; set-up: dose 1 mg/kg, route subcutaneous; details: in vivo
[5] = Unbound fraction in cynomolgus monkey brain at 0.1 mg/kg, sc by LC-MS/MS analysis; type: ADME, organism-based, Macaca fascicularis; set-up: dose 0.1 mg/kg, route subcutaneous
[6] = AUC(0 to infinity) in Sprague-Dawley rat brain at 1 mg/kg, sc by LC-MS/MS analysis; type: ADME, organism-based; set-up: time infinity, dose 1 mg/kg, route subcutaneous
[7] = Ratio of unbound brain concentration to drug level in cerebrospinal fluid in cynomolgus monkey at 0.1 mg/kg, sc by LC-MS/MS analysis; type: ADME, organism-based, Macaca fascicularis; set-up: dose 0.1 mg/kg, route subcutaneous; details: in vivo
[8] = tested on: Nucleic Acid; test: Ratio of drug level in cerebrospinal fluid to unbound plasma concentration in cynomolgus monkey at 0.1 mg/kg, sc by LC-MS/MS analysis; type: ADME, organism-based, Macaca fascicularis; set-up: dose 0.1 mg/kg, route subcutaneous; details: in vivo
[9] = Unbound fraction in Beagle dog plasma at 0.5 mg/kg, po by LC-MS/MS analysis; type: ADME, organism-based, Canis lupus familiaris; set-up: dose 0.5 mg/kg, route oral
[10] = Ratio of drug level in brain to plasma in cynomolgus monkey at 0.1 mg/kg, sc by LC-MS/MS analysis; type: ADME, organism-based, Macaca fascicularis; set-up: dose 0.1 mg/kg, route subcutaneous; details: brain and plasma, read-out: BPR
[11] = Unbound fraction in cynomolgus monkey plasma at 0.1 mg/kg, sc by LC-MS/MS analysis; type: ADME, organism-based, Macaca fascicularis; set-up: dose 0.1 mg/kg, route subcutaneous
[12] = AUC(0 to infinity) in Sprague-Dawley rat cerebrospinal fluid at 1 mg/kg, sc by LC-MS/MS analysis; type: ADME, organism-based; set-up: time infinity, dose 1 mg/kg, route subcutaneous
[13] = Unbound fraction in Beagle dog brain at 0.5 mg/kg, po by LC-MS/MS analysis; type: ADME, organism-based, Canis lupus familiaris; set-up: dose 0.5 mg/kg, route oral
[14] = Ratio of unbound drug level in brain to plasma in cynomolgus monkey at 0.1 mg/kg, sc by LC-MS/MS analysis; type: ADME, organism-based, Macaca fascicularis; set-up: dose 0.1 mg/kg, route subcutaneous; details: brain and plasma
[15] = tested on: Nucleic Acid; test: Ratio of drug level in cerebrospinal fluid to unbound plasma concentration in Sprague-Dawley rat at 1 mg/kg, sc by LC-MS/MS analysis; type: ADME, organism-based; set-up: dose 1 mg/kg, route subcutaneous; details: in vivo
[16] = Ratio of unbound drug level in brain to plasma in Beagle dog at 0.5 mg/kg, po by LC-MS/MS analysis; type: ADME, organism-based, Canis lupus familiaris; set-up: dose 0.5 mg/kg, route oral; details: brain and plasma
[17] = AUC(0 to 2 hrs) in Sprague-Dawley rat brain at 1 mg/kg, sc by LC-MS/MS analysis; type: ADME, organism-based; set-up: time < 2 hr, dose 1 mg/kg, route subcutaneous
[18] = AUC(0 to 2 hrs) in Sprague-Dawley rat plasma at 1 mg/kg, sc by LC-MS/MS analysis; type: ADME, organism-based; set-up: time < 2 hr, dose 1 mg/kg, route subcutaneous
[19] = Ratio of drug level in brain to plasma in Sprague-Dawley rat at 1 mg/kg, sc by LC-MS/MS analysis; type: ADME, organism-based; set-up: dose 1 mg/kg, route subcutaneous; details: read-out: BPR
[20] = AUC(0 to infinity) in Sprague-Dawley rat plasma at 1 mg/kg, sc by LC-MS/MS analysis; type: ADME, organism-based; set-up: time infinity, dose 1 mg/kg, route subcutaneous
[21] = AUC(0 to 2 hrs) in Sprague-Dawley rat cerebrospinal fluid at 1 mg/kg, sc by LC-MS/MS analysis; type: ADME, organism-based; set-up: time < 2 hr, dose 1 mg/kg, route subcutaneous
[22] = AUC(0 to infinity) in Sprague-Dawley rat brain at 0.2 mg/kg, sc by LC-MS/MS analysis; type: ADME, organism-based; set-up: time infinity, dose 0.2 mg/kg, route subcutaneous
[23] = AUC(0 to 7 hrs) in Sprague-Dawley rat plasma at 0.2 mg/kg, sc by LC-MS/MS analysis; type: ADME, organism-based; set-up: time < 7 hr, dose 0.2 mg/kg, route subcutaneous
[24] = AUC(0 to infinity) in Sprague-Dawley rat cerebrospinal fluid at 0.2 mg/kg, sc by LC-MS/MS analysis; type: ADME, organism-based; set-up: time infinity, dose 0.2 mg/kg, route subcutaneous
[25] = AUC(0 to 7 hrs) in Sprague-Dawley rat brain at 0.2 mg/kg, sc by LC-MS/MS analysis; type: ADME, organism-based; set-up: time < 7 hr, dose 0.2 mg/kg, route subcutaneous
[26] = AUC(0 to infinity) in Sprague-Dawley rat plasma at 0.2 mg/kg, sc by LC-MS/MS analysis; type: ADME, organism-based; set-up: dose 0.2 mg/kg, route subcutaneous, time infinity
[27] = AUC(0 to 7 hrs) in Sprague-Dawley rat cerebrospinal fluid at 0.2 mg/kg, sc by LC-MS/MS analysis; type: ADME, organism-based; set-up: time < 7 hr, dose 0.2 mg/kg, route subcutaneous
[28] = AUC(0 to infinity) in Sprague-Dawley rat plasma at 3 mg/kg, sc by LC-MS/MS analysis; type: ADME, organism-based; set-up: time infinity, dose 3 mg/kg, route subcutaneous
[29] = tested on: Nucleic Acid; test: Ratio of drug level in cerebrospinal fluid to unbound plasma concentration in Sprague-Dawley rat at 3 mg/kg, sc by LC-MS/MS analysis; type: ADME, organism-based; set-up: dose 3 mg/kg, route subcutaneous; details: in vivo
[30] = Ratio of drug level in brain to plasma in Sprague-Dawley rat at 3 mg/kg, sc by LC-MS/MS analysis; type: ADME, organism-based; set-up: dose 3 mg/kg, route subcutaneous; details: read-out: BPR
[31] = AUC(0 to infinity) in Sprague-Dawley rat brain at 3 mg/kg, sc by LC-MS/MS analysis; type: ADME, organism-based; set-up: dose 3 mg/kg, route subcutaneous, time infinity
[32] = Ratio of unbound brain concentration to drug level in cerebrospinal fluid in Sprague-Dawley rat at 3 mg/kg, sc by LC-MS/MS analysis; type: ADME, organism-based; set-up: dose 3 mg/kg, route subcutaneous; details: in vivo
[33] = AUC(0 to 7 hrs) in Sprague-Dawley rat cerebrospinal fluid at 3 mg/kg, sc by LC-MS/MS analysis; type: ADME, organism-based; set-up: time < 7 hr, dose 3 mg/kg, route subcutaneous
[34] = AUC(0 to 7 hrs) in Sprague-Dawley rat plasma at 3 mg/kg, sc by LC-MS/MS analysis; type: ADME, organism-based; set-up: time < 7 hr, dose 3 mg/kg, route subcutaneous
[35] = AUC(0 to 7 hrs) in Sprague-Dawley rat brain at 3 mg/kg, sc by LC-MS/MS analysis; type: ADME, organism-based; set-up: time < 7 hr, dose 3 mg/kg, route subcutaneous
[36] = AUC(0 to infinity) in Sprague-Dawley rat cerebrospinal fluid at 3 mg/kg, sc by LC-MS/MS analysis; type: ADME, organism-based; set-up: dose 3 mg/kg, route subcutaneous, time infinity
[37] = Ratio of unbound drug level in brain to plasma in Sprague-Dawley rat at 3 mg/kg, sc by LC-MS/MS analysis; type: ADME, organism-based; set-up: dose 3 mg/kg, route subcutaneous

SMILES: CC(C)S(=O)(=O)N[C@H]1CCOC[C@@H]1c1ccc(-c2ccc(C#N)s2)cc1
- Kp uu [1]: 0.44
- Ratio [2]: 1.19
- Ratio [3]: 0.43
- Ratio [4]: 0.74
- fraction unbound [5]: 0.0228
- AUC(0-inf) [6]: 150 ng·h/mL
- Ratio [7]: 0.94
- Ratio [8]: 0.78
- fraction unbound [9]: 0.0685
- Kp [10]: 2.82
- fraction unbound [11]: 0.0876
- AUC(0-inf) [12]: 5.4 ng·h/mL
- fraction unbound [13]: 0.026
- Kp uu [14]: 0.73
- Ratio [15]: 0.6
- Kp uu [16]: 0.51
- AUC(0-t) at 2 h [17]: 131 ng·h/mL
- AUC(0-t) at 2 h [18]: 122 ng·h/mL
- Kp [19]: 1.07
- AUC(0-inf) [20]: 131 ng·h/mL
- AUC(0-t) at 2 h [21]: 3.46 ng·h/mL

SMILES: CCCC(C)C1(CC)C(=O)NC(=S)NC1=O (configuration not stated) [THIOPENTAL]
- AUC(0-inf) [22]: 215 ng·h/mL
- AUC(0-t) at 7 h [23]: 216 ng·h/mL
- AUC(0-inf) [24]: 16.6 ng·h/mL
- AUC(0-t) at 7 h [25]: 209 ng·h/mL
- AUC(0-inf) [26]: 244 ng·h/mL
- AUC(0-t) at 7 h [27]: 16.4 ng·h/mL

SMILES: Nc1nc(O)c2ncn(COC(CO)CO)c2n1 [GANCICLOVIR]
- AUC(0-inf) [28]: 1720 ng·h/mL
- Ratio [29]: 0.05
- Kp [30]: 0.1
- AUC(0-inf) [31]: 182 ng·h/mL
- Ratio [32]: 1.85
- AUC(0-t) at 7 h [33]: 78.4 ng·h/mL
- AUC(0-t) at 7 h [34]: 1700 ng·h/mL
- AUC(0-t) at 7 h [35]: 170 ng·h/mL
- AUC(0-inf) [36]: 82.5 ng·h/mL
- Kp uu [37]: 0.09

SMILES: NC(=O)N1c2ccccc2C=Cc2ccccc21 [CARBAMAZEPINE]
- AUC(0-inf) [28]: 2280 ng·h/mL
- Ratio [29]: 0.9
- Kp [30]: 1.12
- AUC(0-inf) [31]: 2550 ng·h/mL
- Ratio [32]: 0.5
- AUC(0-t) at 7 h [33]: 456 ng·h/mL
- AUC(0-t) at 7 h [34]: 2270 ng·h/mL
- AUC(0-t) at 7 h [35]: 2540 ng·h/mL
- AUC(0-inf) [36]: 458 ng·h/mL
- Kp uu [37]: 0.45
